In brackets after ≈: the same amount, converted by molar mass.
Columns and labels:
[1] = Aqueous solubility of the compound in JP2 fluid at pH 6.8 by disintegration test; type: physicochemical
[2] = AUC (0 to 24 hrs) in po dosed rat; type: ADME, organism-based; design: time < 24 hr, route oral; settings: in vivo
[3] = Oral bioavailability in rat; type: ADME, organism-based; settings: in vivo
[4] = Inhibition of cyclophilin (unknown origin) assessed as inhibition of HCV FLR1 subgenomic viral replicon replication in presence of 50% human serum albumin by luciferase reporter gene assay
[5] = Inhibition of cyclophilin (unknown origin) assessed as inhibition of HCV FLR1 subgenomic viral replicon replication in presence of 10% FBS by luciferase reporter gene assay; design: species or system Homo sapiens
Splenocyte = test: Immunosuppressive activity in mouse splenocytes assessed as inhibition of concanavalinA-induced cell proliferation; type: cell-based
[6] = Inhibition of cyclophilin (unknown origin) assessed as inhibition of HCV #50-1 subgenomic viral replicon replication in presence of 5% FBS; design: species or system Homo sapiens
[7] = Inhibition of cyclophilin (unknown origin) assessed as inhibition of HCV #50-1 subgenomic viral replicon replication in presence of 50% human serum albumin
Hepatitis C virus = test: Antiviral activity against Hepatitis C virus genotype 1a infected in humanized liver SCID-Alb/uPA chimeric mouse assessed as log reduction in serum HCV RNA level at 15 mg/kg, po administered via gavage bid for 14 days cotreated with interferon-alfa2b at 400 U/g, sc administered qd measured for 7 days follow-up period without compound administration post-last dose; type: functional, Hepacivirus hominis, subtype 1a; settings: time 14 day

Compound | solubility [1] | AUC(0-t) at 24 h [2] | bioavailability [3] | EC50 [4] | EC50 [5] | IC50 (Splenocyte) | EC50 [6] | EC50 [7] | log(activity) (Hepatitis C virus)
C/C=C/C[C@@H](C)[C@@H](O)[C@H]1C(=O)N[C@@H]([C@@H](C)O)C(=O)N(C)[C@H](C)C(=O)N(C)[C@@H]([C@@H](C)OC)C(=O)N[C@@H](CC(C)C)C(=O)N(C)[C@@H](CC(C)C)C(=O)N[C@@H](C)C(=O)N[C@H](C)C(=O)N[C@@H](CC(C)C)C(=O)N[C@@H](CC(C)C)C(=O)N(C)[C@@H](C(C)C)C(=O)N1C | 117 µg/mL (≈ 95.9 µM) | 16100 ng·h/mL | 36% |  |  |  |  |  | 
C/C=C/C[C@@H](C)[C@@H](O)[C@H]1C(=O)N[C@@H]([C@@H](C)O)C(=O)N(C)[C@H](COC)C(=O)N(C)[C@@H](CC(C)C)C(=O)N[C@@H](CC(C)C)C(=O)N(C)[C@@H](CC(C)C)C(=O)N[C@@H](C)C(=O)N[C@H](C)C(=O)N[C@@H](C[C@H](C)CN2CCOCC2)C(=O)N[C@@H](CC(C)C)C(=O)N(C)[C@@H](C(C)C)C(=O)N1C |  |  |  | 0.25 µg/mL | 0.11 µg/mL |  |  |  | 
C/C=C/C[C@@H](C)[C@@H](O)[C@H]1C(=O)N[C@@H]([C@@H](C)O)C(=O)N(C)CC(=O)N(C)[C@@H](CC(C)C)C(=O)N[C@@H](CC(C)C)C(=O)N(C)[C@@H](CC(C)C)C(=O)N[C@@H](C)C(=O)N[C@H](C)C(=O)N[C@@H](C[C@H](C)CN2CCOCC2)C(=O)N[C@@H](CC(C)C)C(=O)N(C)[C@@H](C(C)C)C(=O)N1C |  |  |  |  |  | 0.12 µg/mL (≈ 0.093 µM) | 0.22 µg/mL |  | 
C/C=C/C[C@@H](C)[C@@H](O)[C@H]1C(=O)N[C@@H]([C@@H](C)O)C(=O)N(C)CC(=O)N(C)[C@@H](CC(C)C)C(=O)N[C@@H](CC(C)C)C(=O)N(C)[C@@H](CC(C)C)C(=O)N[C@@H](C)C(=O)N[C@H](C)C(=O)N[C@@H](CC(C)C)C(=O)N[C@@H](CC(C)C)C(=O)N(C)[C@@H](C(C)C)C(=O)N1C |  |  |  |  |  | 0.026 µg/mL (≈ 0.0216 µM) | 0.096 µg/mL | 3.7 µg/mL | 
C/C=C/C[C@@H](C)[C@@H](O)[C@H]1C(=O)N[C@@H]([C@@H](C)O)C(=O)N(C)[C@H](COC)C(=O)N(C)[C@@H](CC(C)C)C(=O)N[C@@H](CC(C)C)C(=O)N(C)[C@@H](CC(C)C)C(=O)N[C@@H](C)C(=O)N[C@H](C)C(=O)N[C@@H](C[C@H](C)COC(=O)N2CCO[C@@H](COC)C2)C(=O)N[C@@H](CC(C)C)C(=O)N(C)[C@@H](C(C)C)C(=O)N1C | 73 µg/mL (≈ 51.3 µM) | 12400 ng·h/mL | 12.9% | 0.064 µg/mL | 0.058 µg/mL | 0.88 µg/mL (≈ 0.619 µM) |  |  | 
C/C=C/C[C@@H](C)[C@@H](O)[C@H]1C(=O)N[C@@H]([C@@H](C)O)C(=O)N(C)[C@H](COC)C(=O)N(C)[C@@H](CC(C)C)C(=O)N[C@@H](CC(C)C)C(=O)N(C)[C@@H](CC(C)C)C(=O)N[C@@H](C)C(=O)N[C@H](C)C(=O)N[C@@H](C[C@H](C)COC(=O)N(C)CCOC)C(=O)N[C@@H](CC(C)C)C(=O)N(C)[C@@H](C(C)C)C(=O)N1C |  |  |  | 0.097 µg/mL | 0.06 µg/mL | 0.85 µg/mL (≈ 0.616 µM) |  |  | 
C/C=C/C[C@@H](C)[C@@H](O)[C@H]1C(=O)N[C@@H]([C@@H](C)O)C(=O)N(C)CC(=O)N(C)[C@@H](CC(C)C)C(=O)N[C@@H](CC(C)C)C(=O)N(C)[C@@H](CC(C)C)C(=O)N[C@@H](C)C(=O)N[C@H](C)C(=O)N[C@@H](C[C@H](C)COC(=O)NCCOC)C(=O)N[C@@H](CC(C)C)C(=O)N(C)[C@@H](C(C)C)C(=O)N1C |  |  |  |  |  | 0.75 µg/mL (≈ 0.567 µM) | 0.097 µg/mL | 0.55 µg/mL | 
C/C=C/C[C@@H](C)[C@@H](O)[C@H]1C(=O)N[C@@H]([C@@H](C)O)C(=O)N(C)[C@H](COC)C(=O)N(C)[C@@H](CC(C)C)C(=O)N[C@@H](CC(C)C)C(=O)N(C)[C@@H](CC(C)C)C(=O)N[C@@H](C)C(=O)N[C@H](C)C(=O)N[C@@H](C[C@H](C)CN2CCOC(COC)(COC)C2)C(=O)N[C@@H](CC(C)C)C(=O)N(C)[C@@H](C(C)C)C(=O)N1C | 54 µg/mL (≈ 38 µM) | 16900 ng·h/mL | 28.3% | 0.1 µg/mL | 0.063 µg/mL | 1.7 µg/mL (≈ 1.2 µM) |  |  | 2
C/C=C/C[C@@H](C)[C@@H](O)[C@H]1C(=O)N[C@@H]([C@@H](C)O)C(=O)N(C)CC(=O)N(C)[C@@H](CC(C)C)C(=O)N[C@@H](CC(C)C)C(=O)N(C)[C@@H](CC(C)C)C(=O)N[C@@H](C)C(=O)N[C@H](C)C(=O)N[C@@H](C[C@H](C)COC(=O)N2CCN(C)CC2)C(=O)N[C@@H](CC(C)C)C(=O)N(C)[C@@H](C(C)C)C(=O)N1C |  |  |  |  |  | 1.9 µg/mL (≈ 1.41 µM) | 0.16 µg/mL | 0.22 µg/mL | 
C/C=C/C[C@@H](C)[C@@H](O)[C@H]1C(=O)N[C@@H]([C@@H](C)O)C(=O)N(C)CC(=O)N(C)[C@@H](CC(C)C)C(=O)N[C@@H](CC(C)C)C(=O)N(C)[C@@H](CC(C)C)C(=O)N[C@@H](C)C(=O)N[C@H](C)C(=O)N[C@@H](C[C@H](C)CO)C(=O)N[C@@H](CC(C)C)C(=O)N(C)[C@@H](C(C)C)C(=O)N1C |  |  |  |  |  | 0.28 µg/mL (≈ 0.229 µM) | 0.85 µg/mL | 2.4 µg/mL | 
C/C=C/C[C@@H](C)[C@@H](O)[C@H]1C(=O)N[C@@H]([C@@H](C)O)C(=O)N(C)CC(=O)N(C)[C@@H](CC(C)C)C(=O)N[C@@H](CC(C)C)C(=O)N(C)[C@@H](CC(C)C)C(=O)N[C@@H](C)C(=O)N[C@H](C)C(=O)N[C@@H](C[C@H](C)COCC(=O)N2CCOCC2)C(=O)N[C@@H](CC(C)C)C(=O)N(C)[C@@H](C(C)C)C(=O)N1C |  |  |  |  |  | 0.92 µg/mL (≈ 0.683 µM) | 0.099 µg/mL | 0.56 µg/mL | 

Reference: ChEMBL document CHEMBL4725301, “Discovery of a novel 9-position modified second-generation anti-HCV candidate via bioconversion and semi-synthesis of FR901459” (Bioorg Med Chem Lett, 2020)
